Where two headings read alike, the source gives them in different places.
Molecular target: T1, P236L viral reverse transcriptase (Human immunodeficiency virus type 1 group M subtype B, UniProt P04585, P823L)
T1 construct: P236L viral reverse transcriptase is obtained by PNAS 90: 4713-4717 (1993); made in house
Assay: inhibition of viral reverse transcriptase (P236L), cell free assay
Assay type: biochemical
Settings: 30 minutes at 37° C.
Source text: The utility of the pyrimidine-thioalkyl and alkylether anti-AIDS compounds of Formula IA of this invention can be determined by their ability to inhibit viral reverse transcriptase, an enzyme essential for human immunodeficiency virus replication. This enzyme has characteristics which differentiate it from other known cellular polymerases and it is a unique enzyme which is not found in uninfected cells. Viral reverse transcriptase (Wild Type) is found in extracts from bacterial clones prepared according to the procedure described in AIDS Virus Reverse Transcriptase defined by high level expression in Escherichia coli, EMBO J. 6:3133-3137 (1987). P236L viral reverse transcriptase is obtained by PNAS 90: 4713-4717 (1993). Inhibition of this enzyme is determined in a cell free assay which measures the level of radioactive precursors incorporated into DNA. Extracts prepared according to the procedure of Science, 1125-1129 (1981) are incubated in a mixture of inhibitor, 20 mM dithiothreitol, 60 mM sodium chloride, 0.05% NP-40, 10 mM magnesium chloride, 50 mM Tris pH 8.3, 10 μM [^35 S]-labeled deoxynuleoside-5'-triphosphate, 10 μg/ml RNA template (poly rC or poly rG) and 5 μg/ml DNA primer (oligo dG or oligo dT) for 30 minutes at 37° C. Incorporation of radio-labeled percursor is determined by spotting aliquots of the reaction mixture on DE81 paper, washing the papers to remove unincorporated percursor, drying and determining counts. The results (IC50 means the concentration, in μM of drug, required to inhibit the reverse transcriptase activity (P236L and Wild Type) to the extent of 50%) of various assay(s) are combined and reported as % inhibition and/or IC50 (calculated) in Table I (P236L) and Table II (Wild Type).

[1] = read-out: IC50 (Table I, P236L)

Row | SMILES | IC50 [1] [nM] | IC50 (IC50 (Table I, P236L)) [nM]
1 | CCC(CC)c1ccnc(CSc2nc(N)cc(Cl)n2)c1 [Example 151, 4-amino-6-chloro-2-[2-(4-(3-pentyl))pyridylmethylthio]-pyrimidine] | 60 | –
2 | COC(=O)c1ccc(CSc2nc(N)cc(Cl)n2)nc1 [Example 188, 4-amino-6-chloro-2[2-(5-carbomethyoxy)pyridylmethylthio]pyrimidine] | – | 50000
3 | COC(=O)c1cccc(CSc2nc(N)cc(Cl)n2)c1 [Example 46, 4-amino-6-chloro-2-(3-carbomethoxyphenylmethylthio)-pyrimidine] | 100 | –
4 | Cc1cc(C)nc(CSc2nc(N)cc(Cl)n2)c1 [Example 121, 4-amino-6-chloro-2-[2-(4,6-dimethyl)pyridylmethylthio]-pyrimidine] | 10 | –
5 | Nc1cc(Cl)nc(SCc2cc3ccccc3o2)n1 [Example 153, 4-Amino-6-chloro-2-[(benzofuran-2-ylmethyl)thio]pyrimidine] | 10000 | –
6 | CCC(C)c1ccnc(CSc2nc(N)cc(Cl)n2)c1 (stereo not shown) [Example 145, 4-amino-6-chloro-2-[2-(4-(2-butyl))pyridylmethylthio]-pyrimidine] | 10 | –
7 | Nc1cc(Cl)nc(SCc2nc3ccccc3s2)n1 [Example 99, 4-amino-6-chloro-2-(2-benzothiazolomethylthio)-pyrimidine] | – | 500
8 | Nc1cc(Cl)nc(SCc2ccccc2)n1 [Example 34A, 4-amino-6-chloro-2-(benzylthio)-pyrimidine] | 2000 | –
9 | Nc1cc(Cl)nc(SCc2cnc3ccccc3n2)n1 [Example 179, 4-Amino-6-chloro-2-[(quinoxalin-2-ylmethyl)thio]pyrimidine] | 500 | –
10 | Nc1cc(Cl)nc(SCc2c(F)cccc2F)n1 [Example 34, 4-amino-6-chloro-2-(2,6-difluorophenylmethylthio)-pyrimidine] | 10000 | –
11 | Cc1cccc(CSc2nc(N)cc(Cl)n2)c1 [Example 36, 4-amino-6-chloro-2-(3-methylphenylmethylthio)-pyrimidine] | 50 | –
12 | CCOc1ccnc(CSc2nc(N)cc(Cl)n2)c1 [Example 115, 4-amino-6-chloro-2-[2-(4-ethoxy)pyridylmethylthio]-pyrimidine] | 50 | –
13 | Nc1cc(Cl)nc([S+]([O-])Cc2ccc3ccccc3c2)n1 (stereo not shown) [Example 68, 4-amino-6-chloro-2-(2-naphthylmethylsulfinyl)-pyrimidine] | 5000 | –
14 | COC(=O)c1ccnc(CSc2nc(N)cc(Cl)n2)c1 [Example 156, 4-amino-6-chloro-2-[2-(4-carbomethoxy)pyridylmethylthio]-pyrimidine] | 100 | –
15 | Nc1cc(Cl)nc(SCc2ccc3cccnc3c2)n1 [Example 184, 4-Amino-6-chloro-2-[(quinolin-7-ylmethyl)thio]pyrimidine] | 3000 | –
16 | Nc1cc(Cl)nc(SCC2=Cc3ccccc3CC2)n1 [Example 171, 4-Amino-6-chloro-2-[[(3,4-dihydro-1-naphthalen-2-yl)methyl]thio]-pyrimidine] | 1000 | –
17 | CCc1ccnc(CSc2nc(N)cc(Cl)n2)c1 [Example 122, 4-amino-6-chloro-2-[2-(4-ethyl)pyridylmethylthio]-pyrimidine] | 10 | –
18 | Nc1cc(Cl)nc(SCc2cc(CO)ccn2)n1 [Example 164, 4-amino-6-chloro-2-[2-(4-hydroxymethyl)-pyridylmethylthio]-pyrimidine] | 1000 | –
19 | Clc1cc(N2CCCC2)nc(SCc2ccccc2)n1 [Example 85, 4-pyrrolidino-6-chloro-2-(benzylthio)-pyrimidine] | 30000 | –
20 | Nc1cc(Cl)nc(SCc2ccoc2)n1 [Example 148, 4-Amino-6-chloro-2-[(furan-3-ylmethyl)thio]pyrimidine] | 10000 | –

Row | SMILES | IC50 [1] [nM] | IC50 (IC50 (Table I, P236L)) [nM]
21 | Cc1ccnc(CSc2nc(N)c(Br)c(Cl)n2)c1 [Example 165, 4-amino-5-bromo-6-chloro-2-[2-(4-methyl)pyridylmethylthio]-pyrimidine] | 50 | –
22 | Nc1cc(Cl)nc(SCc2cccc(Cl)c2)n1 [Example 42, 4-amino-6-chloro-2-(3-chlorophenylmethylthio)-pyrimidine] | 500 | –
23 | Cc1cc(Cl)nc(CSc2nc(N)cc(Cl)n2)c1 [Example 125, 4-amino-6-chloro-2-[2-(6-chloro-4-methyl)pyridylmethylthio]-pyrimidine] | 50 | –
24 | Nc1cc(Cl)nc(SCc2cccc(Cl)n2)n1 [Example 112, 4-amino-6-chloro-2-[2-(6-chloro)pyridylmethylthio]-pyrimidine] | 70 | –
25 | Nc1cc(Cl)nc(SCc2cc(Cl)cc(Cl)c2)n1 [Example 50, 4-amino-6-chloro-2-(3,5-dichlorophenylmethylthio)-pyrimidine] | 330 | –
26 | COc1cc(C)nc(CSc2nc(N)cc(Cl)n2)c1 [Example 120, 4-amino-6-chloro-2-[2-(4-methoxy-6-methyl)-pyridylmethylthio]-pyrimidine] | 20 | –
27 | Cc1ccnc(CSc2nc(N)cc(Cl)n2)c1 [Example 114, 4-amino-6-chloro-2-[2-(4-methyl)pyridylmethylthio]-pyrimidine] | 10 | –
28 | Nc1cc(Cl)nc(SCc2cc(C3CC3)ccn2)n1 [Example 137, 4-amino-6-chloro-2-[2-(4-cyclopropyl)pyridylmethylthio]-pyrimidine] | 10 | –
29 | Nc1cc(Cl)nc(SCc2ccc3ncccc3c2)n1 [Example 178, 4-Amino-6-chloro-2-[(quinolin-6-ylmethyl)thio]pyrimidine] | 500 | –
30 | Cc1cncc(CSc2nc(N)cc(Cl)n2)n1 [Example 173, 4-Amino-6-chloro-2-[(6-methylpyrazin-2-ylmethyl)thio]pyrimidine] | 10000 | –
31 | Nc1nc(SCc2cc(Cl)ccn2)nc(Cl)c1F [Example 192] | 20 | –
32 | Nc1cc(Cl)nc(SCc2cc(Cl)ccn2)n1 [Example 111, 4-amino-6-chloro-2-[2-(4-chloro)-5 pyridylmethylthio]-pyrimidine] | 30 | –
33 | CCCc1ccnc(CSc2nc(N)cc(Cl)n2)c1 [Example 131, 4-amino-6-chloro-2-[2-(4-propyl)pyridylmethylthio]-pyrimidine] | 50 | –
34 | Cc1cnc(CSc2nc(N)cc(Cl)n2)cn1 [Example 175, 4-Amino-6-chloro-2-[(5-methylpyrazin-2-ylmethyl)thio]pyrimidine] | 8000 | –
35 | Nc1cc(Cl)nc(SCc2cccc[n+]2[O-])n1 [Example 147, 2-[2-(4-amino-6-chloro)pyrimidinylthiomethyl]-pyridine-1-oxide] | 5000 | –
36 | COc1cccc(CSc2nc(N)cc(Cl)n2)c1 [Example 39, 4-amino-6-chloro-2-(3-methoxyphenylmethylthio)-pyrimidine] | 160 | –
37 | Nc1cc(Cl)nc(SCc2cc(Br)cc(Br)c2)n1 [Example 52, 4-amino-6-chloro-2-(3,5-dibromophenylmethylthio)-pyrimidine] | 200 | –
38 | Nc1cc(Cl)nc(SCc2ccc3c(c2)CCO3)n1 [Example 168, 4-Amino-6-chloro-2-[(2,3-dihydrobenzofuran-5-ylmethyl)thio]pyrimidine] | 50 | –
39 | Cc1cc(CSc2nc(N)cc(Cl)n2)ncn1 [Example 130, 4-amino-6-chloro-2-[4-(6-methyl)pyrimidinylmethylthio]-pyrimidine] | 800 | –
40 | Cc1cccc(CSc2nccc(N)n2)c1 [Example 96, 4-amino-2-(3-methylphenylmethylthio)-pyrimidine] | 50000 | –

From patent US6043248A, “Alpha-substituted pyrimidine-thioalkyl and alkylether compounds as inhibitors of viral reverse transcriptase” (priority 1997, dated 2000)
